This passage reports MIC and ED50 results from ChEMBL document CHEMBL1131216, “Anhydrolide macrolides. 2. Synthesis and antibacterial activity of 2,3-anhydro-6-O-methyl 11,12-carbazate erythromycin A analogues” (1998).

What all share (format): functional
The test system of assay [1] is Staphylococcus aureus. Kind of assay: In vitro antibacterial activity of 6538P strain of Gram positive bacteria Staphylococcus aureus.
Assay [2] deals with Staphylococcus aureus. Kind of assay: In vitro antibacterial activity of A-5278 strain of Gram positive bacteria Staphylococcus aureus.
In assay [3] the test system is Streptococcus pneumoniae. The assay is described as follows: In vitro antibacterial activity of 5649 strain of Gram positive bacteria Streptococcus pneumoniae.
The subject of assay [4] is Streptococcus pneumoniae. The assay is described as follows: In vitro antibacterial activity of ATCC 6303 strain of Gram positive bacteria Streptococcus pneumoniae.
Assay [5] deals with Streptococcus pyogenes. Kind of assay: In vitro antibacterial activity of EES61 strain of Gram positive bacteria Streptococcus pyogenes.
The subject of assay [6] is Streptococcus pyogenes. The assay is described as follows: In vitro antibacterial activity of 930 strain of Gram positive bacteria Streptococcus pyogenes.
The subject of another assay is Haemophilus influenzae. The assay is described as follows: In vitro antibacterial activity of DILL strain of Gram negative bacteria Haemophilus influenzae.
In assay [7] the test system is Staphylococcus aureus. Kind of assay: In vitro antibacterial activity of A5177 strain of Gram positive bacteria Staphylococcus aureus.
The test system of assay [8] is Streptococcus pneumoniae. The assay is described as follows: In vitro antibacterial activity of 5979 strain of Gram positive bacteria Streptococcus pneumoniae.
Assay [9] concerns Streptococcus pyogenes. The assay is described as follows: In vitro antibacterial activity of PIU2584 strain of Gram positive bacteria Streptococcus pyogenes.
The test system of assay [10] is Staphylococcus aureus. The assay is described as follows: In vivo antibacterial activity of NCTC-10649 strain of Gram positive bacteria Staphylococcus aureus.
Assay [11] relates to Streptococcus pneumoniae. The assay is described as follows: In vivo antibacterial activity of ATCC 6303 strain of Gram positive bacteria Streptococcus pneumoniae.
In assay [12] the test system is Staphylococcus aureus. Kind of assay: In vivo antibacterial activity of NCTC-10649 strain of Gram positive bacteria Staphylococcus aureus (95% confidence interval).
The subject of assay [13] is Streptococcus pneumoniae. Kind of assay: In vivo antibacterial activity of ATCC 6303 strain of Gram positive bacteria Streptococcus pneumoniae (95% confidence interval).

Molecules are shown by their SMILES. Values after ≈ are worked out from the molar mass of the structure shown. Some results are limits rather than exact numbers.

Turning to `CC[C@H]1OC(=O)/C(C)=C/[C@H](C)[C@@H](O[C@@H]2O[C@H](C)C[C@H](N(C)C)[C@H]2O)[C@@](C)(OC)C[C@@H](C)C(=O)[C@H](C)[C@H]2N(NCCCc3ccccc3O)C(=O)O[C@]12C`, the MIC was 0.2 µg/mL (≈ 0.268 µM) against Staphylococcus aureus [1]; > 100 µg/mL in the assay on Staphylococcus aureus [2]; 2 µg/mL (≈ 2.68 µM) in the assay with Streptococcus pneumoniae [3]; 0.03 µg/mL (≈ 0.0402 µM) in the assay on Streptococcus pneumoniae [4]; 0.03 µg/mL (≈ 0.0402 µM) in the assay with Streptococcus pyogenes [5]; > 128 µg/mL against Streptococcus pyogenes [6]. Further, the MIC with Haemophilus influenzae is 16 µg/mL (≈ 21.4 µM); in the assay with Staphylococcus aureus [7], 0.2 µg/mL (≈ 0.268 µM); with Streptococcus pneumoniae [8], > 128 µg/mL; against Streptococcus pyogenes [9], 2 µg/mL (≈ 2.68 µM).
In the case of `CC[C@H]1OC(=O)/C(C)=C/[C@H](C)[C@@H](O[C@@H]2O[C@H](C)C[C@H](N(C)C)[C@H]2O)[C@@](C)(OC)C[C@@H](C)C(=O)[C@H](C)[C@H]2N(NC/C=C/c3ccc([N+](=O)[O-])cc3)C(=O)O[C@]12C`, the MIC was 0.2 µg/mL (≈ 0.259 µM) with Staphylococcus aureus [10]; 0.2 µg/mL (≈ 0.259 µM) against Staphylococcus aureus [1]; 100 µg/mL (≈ 129 µM) with Staphylococcus aureus [2]; 1 µg/mL (≈ 1.29 µM) in the assay on Streptococcus pneumoniae [3]; 0.03 µg/mL (≈ 0.0388 µM) against Streptococcus pneumoniae [4]; 0.06 µg/mL (≈ 0.0776 µM) in the assay with Streptococcus pyogenes [5]. The MIC came to 0.004 µg/mL (≈ 0.00518 µM) against Streptococcus pneumoniae [11]; 32 µg/mL (≈ 41.4 µM) against Streptococcus pyogenes [6]; 8 µg/mL (≈ 10.4 µM) in the assay with Haemophilus influenzae; 0.2 µg/mL (≈ 0.259 µM) with Staphylococcus aureus [7]; 64 µg/mL (≈ 82.8 µM) in the assay with Streptococcus pneumoniae [8]; 1 µg/mL (≈ 1.29 µM) with Streptococcus pyogenes [9]. Besides, the ED50 (as a rule, the midpoint of the dose-response relation) turned out to be 50.1 mg/kg/day in the assay with Staphylococcus aureus [12] and 16.8 mg/kg/day in the assay on Streptococcus pneumoniae [13].
For `CC[C@H]1OC(=O)/C(C)=C/[C@H](C)[C@@H](O[C@@H]2O[C@H](C)C[C@H](N(C)C)[C@H]2O)[C@@](C)(OC)C[C@@H](C)C(=O)[C@H](C)[C@H]2N(NC/C=C/c3ccc(N)cc3)C(=O)O[C@]12C`, the MIC against Staphylococcus aureus [10] is 0.2 µg/mL (≈ 0.269 µM); in the assay with Staphylococcus aureus [1] it was 0.2 µg/mL (≈ 0.269 µM); with Staphylococcus aureus [2], > 100 µg/mL; in the assay on Streptococcus pneumoniae [3], 1 µg/mL (≈ 1.35 µM); in the assay with Streptococcus pneumoniae [4], 0.03 µg/mL (≈ 0.0404 µM); against Streptococcus pyogenes [5] it was 0.03 µg/mL (≈ 0.0404 µM). For the same compound, the MIC is 0.03 µg/mL (≈ 0.0404 µM) in the assay with Streptococcus pneumoniae [11]; > 128 µg/mL in the assay with Streptococcus pyogenes [6]; 2 µg/mL (≈ 2.69 µM) in the assay on Haemophilus influenzae; 0.2 µg/mL (≈ 0.269 µM) in the assay with Staphylococcus aureus [7]; > 128 µg/mL against Streptococcus pneumoniae [8]; 1 µg/mL (≈ 1.35 µM) in the assay on Streptococcus pyogenes [9]. For the same compound, the ED50 turned out to be 39.9 mg/kg/day with Staphylococcus aureus [12] and 9.9 mg/kg/day with Streptococcus pneumoniae [13].
In the case of `CC[C@H]1OC(=O)/C(C)=C/[C@H](C)[C@@H](O[C@@H]2O[C@H](C)C[C@H](N(C)C)[C@H]2O)[C@@](C)(OC)C[C@@H](C)C(=O)[C@H](C)[C@H]2N(NC/C=C/c3ccccc3)C(=O)O[C@]12C`, the MIC with Staphylococcus aureus [1] was 0.02 µg/mL (≈ 0.0275 µM); against Staphylococcus aureus [2], 100 µg/mL (≈ 137 µM); in the assay with Streptococcus pneumoniae [3] it was 1 µg/mL (≈ 1.37 µM); in the assay with Streptococcus pneumoniae [4], 0.03 µg/mL (≈ 0.0412 µM); against Streptococcus pyogenes [5] it was 0.06 µg/mL (≈ 0.0824 µM); against Streptococcus pyogenes [6], 32 µg/mL (≈ 44 µM). The MIC came to 8 µg/mL (≈ 11 µM) in the assay on Haemophilus influenzae, 0.1 µg/mL (≈ 0.137 µM) against Staphylococcus aureus [7], 32 µg/mL (≈ 44 µM) against Streptococcus pneumoniae [8] and 0.5 µg/mL (≈ 0.687 µM) against Streptococcus pyogenes [9].
Take `CC[C@H]1OC(=O)/C(C)=C/[C@H](C)[C@@H](O[C@@H]2O[C@H](C)C[C@H](N(C)C)[C@H]2O)[C@@](C)(OC)C[C@@H](C)C(=O)[C@H](C)[C@H]2N(NCc3ccc(O)cc3)C(=O)O[C@]12C`: the MIC in the assay on Staphylococcus aureus [1] is 0.2 µg/mL (≈ 0.279 µM); in the assay on Staphylococcus aureus [2], > 100 µg/mL; in the assay on Streptococcus pneumoniae [3], 1 µg/mL (≈ 1.39 µM); against Streptococcus pneumoniae [4], 0.03 µg/mL (≈ 0.0418 µM); with Streptococcus pyogenes [5], 0.03 µg/mL (≈ 0.0418 µM); in the assay with Streptococcus pyogenes [6] it was > 128 µg/mL. Moreover, the MIC was 4 µg/mL (≈ 5.57 µM) against Haemophilus influenzae, 0.2 µg/mL (≈ 0.279 µM) against Staphylococcus aureus [7], > 128 µg/mL with Streptococcus pneumoniae [8] and 1 µg/mL (≈ 1.39 µM) against Streptococcus pyogenes [9].
Take `CC[C@H]1OC(=O)[C@H](C)[C@@H](O[C@H]2C[C@@](C)(OC)[C@@H](O)[C@H](C)O2)[C@H](C)[C@@H](O[C@@H]2O[C@H](C)C[C@H](N(C)C)[C@H]2O)[C@](C)(OC)C[C@@H](C)C(=O)[C@H](C)[C@@H](O)[C@]1(C)O` [CLARITHROMYCIN]: the figures for the MIC against Staphylococcus aureus [10] and in the assay on Streptococcus pneumoniae [11] were 0.39 µg/mL (≈ 0.521 µM) and 0.03 µg/mL (≈ 0.0401 µM), respectively. Moreover, the ED50 in the assay on Staphylococcus aureus [12] came out at 22.4 mg/kg/day; with Streptococcus pneumoniae [13], 27.2 mg/kg/day.
In the case of `CC[C@H]1OC(=O)[C@H](C)[C@@H](O[C@H]2C[C@@](C)(OC)[C@@H](O)[C@H](C)O2)[C@H](C)[C@@H](O[C@@H]2O[C@H](C)C[C@H](N(C)C)[C@H]2O)[C@](C)(O)C[C@@H](C)C(=O)[C@H](C)[C@@H](O)[C@]1(C)O` [ERYTHROMYCIN], the MIC against Staphylococcus aureus [1] is 0.2 µg/mL (≈ 0.273 µM); against Staphylococcus aureus [2], > 100 µg/mL; in the assay with Streptococcus pneumoniae [3] it was 16 µg/mL (≈ 21.8 µM); with Streptococcus pneumoniae [4] it was 0.06 µg/mL (≈ 0.0818 µM); in the assay on Streptococcus pyogenes [5], 0.03 µg/mL (≈ 0.0409 µM); against Streptococcus pyogenes [6], > 128 µg/mL. The MIC is 4 µg/mL (≈ 5.45 µM) with Haemophilus influenzae, 3.1 µg/mL (≈ 4.22 µM) in the assay on Staphylococcus aureus [7], > 128 µg/mL in the assay on Streptococcus pneumoniae [8] and 32 µg/mL (≈ 43.6 µM) in the assay on Streptococcus pyogenes [9].
